In patent US8629159B2, “Thiazolidinedione analogues” (Metabolic Solutions Development Company, LLC, priority 2006, dated 2014):
Marks after values point to notes of the source that are not given here.

Tests used:
male Sprague-Dawley rats = assay: Prevention of Medrol-induced hypertension, mean blood pressure by direct femoral arterial cannulation; assay type: in vivo, rat; conditions: hypertension generated by treatment with a glucocorticoid
Protocol: Hypertension was induced in normal male Sprague-Dawley rats by daily dosing with the glucocorticoid methylprednisolone (Medrol) for 8 days. Separate groups of rats received the vehicle (1% carboxymethylcellulose/0.01% Tween 20) by oral gavage and some of both the vehicle-treated and Medrol-treated rats also received daily doses of compound 1 as shown in Table D below. Mean blood pressure was measured by direct femoral arterial cannulation under fed conditions on day 7 and after a 6 hour fast on day 8. The data are mean and (SEM) mean blood pressure obtained by direct cannulation. N=9; * p<0.05 less than blood pressure in Medrol-treated rats.

[1] = test system: Male salt-sensitive Dahl rats; assay: Fasting free fatty acids (FFA) and adiponectin in treated Dahl rats; assay type: in vivo, rat; conditions: 3 weeks treatment; 40 mg/kg compound 1, 20 mg/kg rosiglitazone
Protocol: Doses of these compounds were chosen to produce the same metabolic effects in terms of reduction of triglycerides and elevation of adiponectin (Table E). Direct blood pressure (systolic and diastolic) and heart rate was also measured by telemetry (Tables F—H and FIG. 4).

[2] = test system: Male Dahl salt-sensitive rats; assay: Antihypertensive action in hypertensive Dahl salt-sensitive rats (high salt diet), mean blood pressure by direct femoral arterial cannulation; assay type: in vivo, rat
Protocol: Male Dahl salt-sensitive rats were made hypertensive by feeding of a high salt diet (4% salt) for 3 weeks and then treated daily with the indicated dose of hydrochlorothiazide (HCTZ), compound 1, or the combination of HCTZ and compound 1, as compared to the vehicle alone (1% carboxymethylcellulose/0.01% Tween 20) by oral gavage for 8 days. Mean blood pressure was measured by direct femoral arterial cannulation under fed conditions on day 7 and after a 6 hour fast on day 8.
Referring to FIG. 2 and Table C above, the antihypertensive action of compound 1 is additive with hydrocholothiazide (HCTZ). Data are mean and (SEM) mean blood pressure taken by direct cannulation. N=5; * p<0.05 less than blood pressure in HCTZ-treated rats.

[3] = test system: Male salt-sensitive Dahl rats; assay: Blood pressure (systolic and diastolic) and heart rate by telemetry in hypertensive Dahl rats; assay type: in vivo, rat; conditions: for Diastolic blood pressure measured by telemetry, Mean / Heart rate measured by telemetry, Mean / Systolic blood pressure measured by telemetry, Mean: 24 hour average
Protocol: Direct blood pressure (systolic and diastolic) and heart rate was also measured by telemetry (Tables F—H and FIG. 4). Data in Tables F—H and depicted in FIGS. 4A-4C are 24 hour averages for the last 4 days before the start of the daily oral gavage of treatments (−4, −3, −2, −1) and for the days 1-17 during the treatments shown.

PPARγ = target: T1, PPARγ (Homo sapiens, UniProt P37231); assay: commercial PPARγ binding assay (Invitrogen; PPAR-LBD/Fluormone PPAR Green complex); conditions: for Binding to PPARγ (Fluormone displacement signal): mean of three experiments
T1 construct: purchased Invitrogen Corporation, Carlsbad, Calif
T1 sequence (P37231 238-503 limits assumed): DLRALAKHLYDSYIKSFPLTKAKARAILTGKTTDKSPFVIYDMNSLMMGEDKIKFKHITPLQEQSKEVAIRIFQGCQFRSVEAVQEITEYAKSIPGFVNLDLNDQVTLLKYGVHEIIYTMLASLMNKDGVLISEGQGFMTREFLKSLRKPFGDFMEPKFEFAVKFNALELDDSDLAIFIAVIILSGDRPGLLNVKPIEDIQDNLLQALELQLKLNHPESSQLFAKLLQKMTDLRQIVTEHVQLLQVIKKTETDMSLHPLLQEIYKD
Protocol: The ability of several exemplary compounds of the present invention, shown in Table A, to bind to PPARγ was measured using a commercial binding assay (Invitrogen Corporation, Carlsbad, Calif.) that measures the test compounds ability to bind with PPAR-LBD/Fluormone PPAR Green complex. These assays were performed on three occasions with each assay using four separate wells (quadruplicate) at each concentration of tested compound. The data are mean and SEM of the values obtained from the three experiments. […] Compounds were added at the concentrations shown, which range from 0.1-100 micromolar.

[4] = day 1 of treatment, rosiglitazone 20 mg/kg, compound 1 40 mg/kg
[5] = day 2 of treatment, rosiglitazone 20 mg/kg, compound 1 40 mg/kg
[6] = day 3 of treatment, rosiglitazone 20 mg/kg, compound 1 40 mg/kg
[7] = day 4 of treatment, rosiglitazone 20 mg/kg, compound 1 40 mg/kg
[8] = day 5 of treatment, rosiglitazone 20 mg/kg, compound 1 40 mg/kg
[9] = day 6 of treatment, rosiglitazone 20 mg/kg, compound 1 40 mg/kg
[10] = day 7 of treatment, rosiglitazone 20 mg/kg, compound 1 40 mg/kg
[11] = day 8 of treatment, rosiglitazone 20 mg/kg, compound 1 40 mg/kg
[12] = day 9 of treatment, rosiglitazone 20 mg/kg, compound 1 40 mg/kg
[13] = day 10 of treatment, rosiglitazone 20 mg/kg, compound 1 40 mg/kg
[14] = day 11 of treatment, rosiglitazone 20 mg/kg, compound 1 40 mg/kg
[15] = day 12 of treatment, rosiglitazone 20 mg/kg, compound 1 40 mg/kg
[16] = day 13 of treatment, rosiglitazone 20 mg/kg, compound 1 40 mg/kg
[17] = day 14 of treatment, rosiglitazone 20 mg/kg, compound 1 40 mg/kg
[18] = day 15 of treatment, rosiglitazone 20 mg/kg, compound 1 40 mg/kg
[19] = day 16 of treatment, rosiglitazone 20 mg/kg, compound 1 40 mg/kg
[20] = day 17 of treatment, rosiglitazone 20 mg/kg, compound 1 40 mg/kg
[21] = day −1, before start of treatment
[22] = day −2, before start of treatment
[23] = day −3, before start of treatment
[24] = day −4, before start of treatment

CCc1ccc(C(=O)COc2ccc(CC3SC(=O)NC3=O)cc2)nc1 (centres unmarked) [Compound 1]
blood pressure lowering (in words) (male Sprague-Dawley rats): significantly lowered blood pressure | Adiponectin [1]: 36* | FFA [1]: 0.70* | Mean blood pressure, Fasted ([2]; 6 hour fast, day 8, oral gavage daily, Compound 1 40 mg/kg/day, HCTZ 5 mg/kg/day): 151 | antihypertensive action in combination with HCTZ (in words) ([2]; FIG. 2 and Table C): additive | Mean blood pressure, Fed ([2]; fed, day 7, oral gavage daily, Compound 1 40 mg/kg/day, HCTZ 5 mg/kg/day): 167 | blood pressure lowering (in words) ([2]; hypertensive Dahl salt-sensitive rats): significantly lower blood pressure | Diastolic blood pressure measured by telemetry, Mean [3, 4]: 119 | Heart rate measured by telemetry, Mean [3, 4]: 420 bpm | Systolic blood pressure measured by telemetry, Mean [3, 4]: 167 | Diastolic blood pressure measured by telemetry, Mean [3, 5]: 117 | Heart rate measured by telemetry, Mean [3, 5]: 414 bpm | Systolic blood pressure measured by telemetry, Mean [3, 5]: 167 | Diastolic blood pressure measured by telemetry, Mean [3, 6]: 120 | Heart rate measured by telemetry, Mean [3, 6]: 406 bpm | Systolic blood pressure measured by telemetry, Mean [3, 6]: 171 | Diastolic blood pressure measured by telemetry, Mean [3, 7]: 119 | Heart rate measured by telemetry, Mean [3, 7]: 405 bpm | Systolic blood pressure measured by telemetry, Mean [3, 7]: 170 | Diastolic blood pressure measured by telemetry, Mean [3, 8]: 122 | Heart rate measured by telemetry, Mean [3, 8]: 400 bpm | Systolic blood pressure measured by telemetry, Mean [3, 8]: 173 | Diastolic blood pressure measured by telemetry, Mean [3, 9]: 121 | Heart rate measured by telemetry, Mean [3, 9]: 395 bpm | Systolic blood pressure measured by telemetry, Mean [3, 9]: 173 | Diastolic blood pressure measured by telemetry, Mean [3, 10]: 125 | Heart rate measured by telemetry, Mean [3, 10]: 389 bpm | Systolic blood pressure measured by telemetry, Mean [3, 10]: 176 | Diastolic blood pressure measured by telemetry, Mean [3, 11]: 128 | Heart rate measured by telemetry, Mean [3, 11]: 394 bpm | Systolic blood pressure measured by telemetry, Mean [3, 11]: 180 | Diastolic blood pressure measured by telemetry, Mean [3, 12]: 129 | Heart rate measured by telemetry, Mean [3, 12]: 388 bpm | Systolic blood pressure measured by telemetry, Mean [3, 12]: 182 | Diastolic blood pressure measured by telemetry, Mean [3, 13]: 132 | Heart rate measured by telemetry, Mean [3, 13]: 389 bpm | Systolic blood pressure measured by telemetry, Mean [3, 13]: 185 | Diastolic blood pressure measured by telemetry, Mean [3, 14]: 132 | Heart rate measured by telemetry, Mean [3, 14]: 389 bpm | Systolic blood pressure measured by telemetry, Mean [3, 14]: 184 | Diastolic blood pressure measured by telemetry, Mean [3, 15]: 132 | Heart rate measured by telemetry, Mean [3, 15]: 391 bpm | Systolic blood pressure measured by telemetry, Mean [3, 15]: 187 | Diastolic blood pressure measured by telemetry, Mean [3, 16]: 135 | Heart rate measured by telemetry, Mean [3, 16]: 388 bpm | Systolic blood pressure measured by telemetry, Mean [3, 16]: 189 | Diastolic blood pressure measured by telemetry, Mean [3, 17]: 135 | Heart rate measured by telemetry, Mean [3, 17]: 385 bpm | Systolic blood pressure measured by telemetry, Mean [3, 17]: 192 | Diastolic blood pressure measured by telemetry, Mean [3, 18]: 137 | Heart rate measured by telemetry, Mean [3, 18]: 390 bpm | Systolic blood pressure measured by telemetry, Mean [3, 18]: 193 | Diastolic blood pressure measured by telemetry, Mean [3, 19]: 138 | Heart rate measured by telemetry, Mean [3, 19]: 389 bpm | Systolic blood pressure measured by telemetry, Mean [3, 19]: 197 | Diastolic blood pressure measured by telemetry, Mean [3, 20]: 141 | Heart rate measured by telemetry, Mean [3, 20]: 388 bpm | Systolic blood pressure measured by telemetry, Mean [3, 20]: 195 | Diastolic blood pressure measured by telemetry, Mean [3, 21]: 125 | Heart rate measured by telemetry, Mean [3, 21]: 393 bpm | Systolic blood pressure measured by telemetry, Mean [3, 21]: 173 | Diastolic blood pressure measured by telemetry, Mean [3, 22]: 127 | Heart rate measured by telemetry, Mean [3, 22]: 398 bpm | Systolic blood pressure measured by telemetry, Mean [3, 22]: 175 | Diastolic blood pressure measured by telemetry, Mean [3, 23]: 123 | Heart rate measured by telemetry, Mean [3, 23]: 400 bpm | Systolic blood pressure measured by telemetry, Mean [3, 23]: 170 | Diastolic blood pressure measured by telemetry, Mean [3, 24]: 124 | Heart rate measured by telemetry, Mean [3, 24]: 406 bpm | Systolic blood pressure measured by telemetry, Mean [3, 24]: 171 | effect on heart rate (in words) ([3]; telemetry, Tables F-H): reducing heart rate | reduction of blood pressure compared with rosiglitazone (in words) ([3]; telemetry, Tables F-H): more effective in reducing blood pressure | Binding to PPARγ (Fluormone displacement signal) (PPARγ; 1 μM compound): 223 | Binding to PPARγ (Fluormone displacement signal) (PPARγ; 3 μM compound): 228 | Binding to PPARγ (Fluormone displacement signal) (PPARγ; 10 μM compound): 207 | Binding to PPARγ (Fluormone displacement signal) (PPARγ; 50 μM compound): 174 | Binding to PPARγ (Fluormone displacement signal) (PPARγ; 100 μM compound): 170 | Binding to PPARγ (Fluormone displacement signal) (PPARγ; .1 μM compound): 227 | Binding to PPARγ (Fluormone displacement signal) (PPARγ; .3 μM compound): 232 | binding to PPARγ (in words) (PPARγ; FIG. 1 and Table B): particularly poor binders
